These results are taken from US10023592B2, “Bromodomain inhibitors” (Celgene Quanticel Research, Inc., priority 2013, dated 2018).

The test system of assay [1] is Raji, human Burkitts lymphoma cells. Put plainly: Cell-MTS proliferation assay, Raji. To be noted: Homo sapiens, 168 hr. In kind it is cell-based. An outline of the steps:
(§1)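 Seeded for ~90% confluence at 7 days (Raji 15,000, HL-60 5,000, NCI-H460 3,000 cells/well); compound added 24 h post-plating as 11-point dilution, 100 μM to 2.0 nM final.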

The target in assay [2] is BRD4(BD1) (Homo sapiens (Human), UniProt O60885). Put plainly: In vitro enzyme inhibition assay (BRD4 AlphaScreen). In kind it is binding. An outline of the steps: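 His-tagged BRD4 tested by AlphaScreen for binding of biotinylated H4K5/8/12/16-tetraacetyl peptide. After 20 min at room temperature, streptavidin donor and nickel chelate acceptor beads added (5 μg/mL final each). IC50 determined.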
A general note: Alpha assays give light when donor and acceptor beads are brought close together.

Assay [3] deals with NCI-H460, human non-small cell lung cancer cells. As to the kind of experiment: Cell-MTS proliferation assay, NCI-H460. In kind it is cell-based. To be noted: Homo sapiens, 168 hr. Put shortly: as §1
In general terms: Tetrazolium dyes change colour on reduction, which living cells bring about.

Assay [4] concerns HL-60, human proleukemia cells. Put plainly: Cell-MTS proliferation assay, HL-60. In kind it is cell-based. To be noted: Homo sapiens, 168 hr. Put shortly: as §1
[5] abbreviates: in vitro enzyme inhibition assay.
Setting [6] is: NCI-H460, Cell-MTS proliferation.
Where [7] appears, read: Raji, Cell-MTS, class symbols A/B/C.
The mark [8] stands for this setting: NCI-H460, Cell-MTS, class symbols A/B/C.
Setting [9] is: HL-60, Cell-MTS, class symbols A/B/C.
Setting [10] is: Cell-MTS proliferation, Raji cells.
Where [11] appears, read: Cell-MTS proliferation, NCI-H460 cells.
The mark [12] stands for this setting: Cell-MTS proliferation, HL-60 cells.

For orientation: IC50 means the concentration needed to halve the response being measured. A low value points to inhibition by little substance.

On to `Cn1cc(-c2nc(NS(C)(=O)=O)ncc2Oc2ccc(F)cc2F)c2c(c1=O)CCCC2` [Example 172, N-[5-(2,4-difluorophenoxy)-4-(2-methyl-1-oxo-5,6,7,8-tetrahydroisoquinolin-4-yl)pyrimidin-2-yl]methanesulfonamide], for which the IC50 in assay [1] (Raji, Cell-MTS proliferation) is 500 to 5000 nM; in assay [2] (setting [5]) it was less than 500 nM; in assay [3] (setting [6]), more than 5000 nM; in assay [4] (HL-60, Cell-MTS proliferation) it was 500 to 5000 nM.
`COc1cc(F)c(CS(C)(=O)=O)cc1-c1cn(C)c(=O)c2ccc(-c3cnn(C)c3)cc12` [Example 88, 4-[4-fluoro-2-methoxy-5-(methylsulfonylmethyl)phenyl]-2-methyl-6-(1-methylpyrazol-4-yl)isoquinolin-1-one]: the IC50 in assay [1] (setting [7]) is less than 500 nM; in assay [2] (class symbols A/B/C), less than 500 nM; in assay [3] (setting [8]) it was more than 5000 nM; in assay [4] (setting [9]), less than 500 nM.
On to `CCN(c1ncc(OCC2CC2)c(-c2cn(C)c(=O)c3ccccc23)n1)S(C)(=O)=O` [Example 161, N-[5-(cyclopropylmethoxy)-4-(2-methyl-1-oxoisoquinolin-4-yl)pyrimidin-2-yl]-N-ethylmethanesulfonamide], for which the IC50 in assay [1] (Raji, Cell-MTS proliferation) was less than 500 nM; in assay [2] (setting [5]), less than 500 nM; in assay [3] (setting [6]) it was more than 5000 nM; in assay [4] (HL-60, Cell-MTS proliferation), less than 500 nM.
In the case of `C#Cc1cc(-c2cc(S(=O)(=O)CC)ccc2OCC2CC2)cn(C)c1=O` [Example 284, 5-[2-(cyclopropylmethoxy)-5-ethylsulfonylphenyl]-3-ethynyl-1-methylpyridin-2-one], the IC50 in assay [1] (Raji, Cell-MTS proliferation) is 500 to 5000 nM; in assay [2] (setting [5]) it was less than 500 nM; in assay [3] (setting [6]) it was more than 5000 nM; in assay [4] (HL-60, Cell-MTS proliferation), 500 to 5000 nM.
In the case of `CCS(=O)(=O)c1ccc(NCC2CC2)c(-c2cc(N(C)C)c(=O)n(C)c2)c1` [Example 440, 5-[2-(cyclopropylmethylamino)-5-ethylsulfonylphenyl]-3-(dimethylamino)-1-methylpyridin-2-one], the IC50 in assay [1] (setting [10]) is less than 500 nM; in assay [2] (setting [5]), less than 500 nM; in assay [3] (setting [11]) it was more than 5000 nM; in assay [4] (setting [12]), less than 500 nM.
Turning to `CCCOc1ccc(S(C)(=O)=O)cc1-c1cn(C)c(=O)c2ccccc12` [Example 178, 2-methyl-4-(5-methylsulfonyl-2-propoxyphenyl)isoquinolin-1-one], the IC50 in assay [1] (Raji, Cell-MTS proliferation) is less than 500 nM; in assay [2] (setting [5]), less than 500 nM; in assay [3] (setting [6]), more than 5000 nM; in assay [4] (HL-60, Cell-MTS proliferation) it was less than 500 nM.
Consider `Cc1cc(-c2cc(OCCc3ccccc3)cc(S(C)(=O)=O)c2)cn(C)c1=O` [Example 326, 1,3-dimethyl-5-[3-methylsulfonyl-5-(2-phenylethoxy)phenyl]pyridin-2-one], for which the IC50 in assay [1] (Raji, Cell-MTS proliferation) was 500 to 5000 nM; in assay [2] (setting [5]), less than 500 nM; in assay [3] (setting [6]) it was more than 5000 nM; in assay [4] (HL-60, Cell-MTS proliferation), 500 to 5000 nM.
For the compound `Cn1cc(-c2cc(S(C)(=O)=O)ccc2NCC2CC2)ccc1=O` [Example 468, 5-[2-(cyclopropylmethylamino)-5-methylsulfonylphenyl]-1-methylpyridin-2-one], the IC50 is more than 5000 nM in assay [1] (setting [10]), less than 500 nM in assay [2] (setting [5]), more than 5000 nM in assay [3] (setting [11]) and 500 to 5000 nM in assay [4] (setting [12]).
Take `CCS(=O)(=O)Nc1ccc(Oc2ccc(F)cc2F)c(-c2cc(C3CC3)c(=O)n(C)c2)c1` [Example 140, N-[3-(5-cyclopropyl-1-methyl-6-oxopyridin-3-yl)-4-(2,4-difluorophenoxy)phenyl]ethanesulfonamide]: the IC50 is less than 500 nM in assay [1] (Raji, Cell-MTS proliferation); less than 500 nM in assay [2] (setting [5]); more than 5000 nM in assay [3] (setting [6]); less than 500 nM in assay [4] (HL-60, Cell-MTS proliferation).
Consider `Cc1cc(-c2cn(CS(C)(=O)=O)c(=O)cc2OCC2CC2)cn(C)c1=O` [Example 382, 5-[4-(cyclopropylmethoxy)-1-(methylsulfonylmethyl)-6-oxopyridin-3-yl]-1,3-dimethylpyridin-2-one], for which the IC50 in assay [1] (setting [10]) is 500 to 5000 nM; in assay [2] (setting [5]), less than 500 nM; in assay [3] (setting [11]) it was more than 5000 nM; in assay [4] (setting [12]), less than 500 nM.
For the compound `CCOc1ccc(S(=O)(=O)CC)cc1-c1cn(C)c(=O)c2cnc(-c3cnn(C)c3)nc12` [Example 227, 8-(2-ethoxy-5-ethylsulfonylphenyl)-6-methyl-2-(1-methylpyrazol-4-yl)pyrido[4,3-d]pyrimidin-5-one], the IC50 in assay [1] (Raji, Cell-MTS proliferation) is 500 to 5000 nM; in assay [2] (setting [5]), less than 500 nM; in assay [3] (setting [6]) it was more than 5000 nM; in assay [4] (HL-60, Cell-MTS proliferation), less than 500 nM.
For `Cc1cc(-c2cc(OCCC3CC3)cc(S(C)(=O)=O)c2)cn(C)c1=O` [Example 327, 5-[3-(2-cyclopropylethoxy)-5-methylsulfonylphenyl]-1,3-dimethylpyridin-2-one], the IC50 is 500 to 5000 nM in assay [1] (Raji, Cell-MTS proliferation); less than 500 nM in assay [2] (setting [5]); more than 5000 nM in assay [3] (setting [6]); 500 to 5000 nM in assay [4] (HL-60, Cell-MTS proliferation).
With `Cc1nc2c(=O)n(C)cc(-c3cc(S(C)(=O)=O)ccc3OCC3CC3)c2o1` [Example 238, 7-[2-(cyclopropylmethoxy)-5-methylsulfonylphenyl]-2,5-dimethyl-[1,3]oxazolo[4,5-c]pyridin-4-one], the IC50 in assay [1] (Raji, Cell-MTS proliferation) was 500 to 5000 nM; in assay [2] (setting [5]) it was less than 500 nM; in assay [3] (setting [6]) it was more than 5000 nM; in assay [4] (HL-60, Cell-MTS proliferation), less than 500 nM.
In the case of `Cc1cc(-c2nc(NS(C)(=O)=O)ncc2Oc2ccc(F)cc2F)cn(C)c1=O` [Example 166, N-[5-(2,4-difluorophenoxy)-4-(1,5-dimethyl-6-oxopyridin-3-yl)pyrimidin-2-yl]methanesulfonamide], the IC50 in assay [1] (Raji, Cell-MTS proliferation) is less than 500 nM; in assay [2] (setting [5]), less than 500 nM; in assay [3] (setting [6]), more than 5000 nM; in assay [4] (HL-60, Cell-MTS proliferation) it was less than 500 nM.
As to `CCS(=O)(=O)Nc1ncc(Oc2ccc(F)cc2F)c(-c2cc(C)c(=O)n(CC3CC3)c2)n1` [Example 249, N-[4-[1-(cyclopropylmethyl)-5-methyl-6-oxopyridin-3-yl]-5-(2,4-difluorophenoxy)pyrimidin-2-yl]ethanesulfonamide], the IC50 in assay [1] (Raji, Cell-MTS proliferation) was less than 500 nM; in assay [2] (setting [5]) it was less than 500 nM; in assay [3] (setting [6]), more than 5000 nM; in assay [4] (HL-60, Cell-MTS proliferation), less than 500 nM.
As for `Cn1cc(-c2cc(S(C)(=O)=O)ccc2OCC2CC2)cc(Oc2ccccc2)c1=O` [Example 295, 5-[2-(cyclopropylmethoxy)-5-methylsulfonylphenyl]-1-methyl-3-phenoxypyridin-2-one], the IC50 in assay [1] (Raji, Cell-MTS proliferation) was 500 to 5000 nM; in assay [2] (setting [5]), less than 500 nM; in assay [3] (setting [6]) it was 500 to 5000 nM; in assay [4] (HL-60, Cell-MTS proliferation), 500 to 5000 nM.
Consider `CCS(=O)(=O)Cc1ccc(Oc2ccc(F)cc2F)c(-c2cc(OC(F)F)c(=O)n(C)c2)c1` [Example 291, 3-(difluoromethoxy)-5-[2-(2,4-difluorophenoxy)-5-(ethylsulfonylmethyl)phenyl]-1-methylpyridin-2-one], for which the IC50 is less than 500 nM in assay [1] (Raji, Cell-MTS proliferation); less than 500 nM in assay [2] (setting [5]); more than 5000 nM in assay [3] (setting [6]); less than 500 nM in assay [4] (HL-60, Cell-MTS proliferation).
For `Cc1cc(-c2cc(NS(C)(=O)=O)ccc2Oc2ccc(F)cc2F)cn(C)c1=O` [Example 102, N-[4-(2,4-difluorophenoxy)-3-(1,5-dimethyl-6-oxopyridin-3-yl)phenyl]methanesulfonamide], the IC50 is less than 500 nM in assay [1] (setting [7]), less than 500 nM in assay [2] (class symbols A/B/C), more than 5000 nM in assay [3] (setting [8]) and less than 500 nM in assay [4] (setting [9]).
On to `Cc1cc(-c2cc(S(C)(=O)=O)ccc2OCC2CC2)cn(CC2CC2)c1=O` [Example 242, 5-[2-(cyclopropylmethoxy)-5-methylsulfonylphenyl]-1-(cyclopropylmethyl)-3-methylpyridin-2-one], for which the IC50 in assay [1] (Raji, Cell-MTS proliferation) is 500 to 5000 nM; in assay [2] (setting [5]) it was less than 500 nM; in assay [3] (setting [6]) it was more than 5000 nM; in assay [4] (HL-60, Cell-MTS proliferation), less than 500 nM.
On to `CCS(=O)(=O)c1cc(-c2cn(C)c(=O)c3ccccc23)c(OCC2CC2)cn1` [Example 207, 4-[5-(cyclopropylmethoxy)-2-ethylsulfonylpyridin-4-yl]-2-methylisoquinolin-1-one], for which the IC50 was less than 500 nM in assay [1] (Raji, Cell-MTS proliferation); less than 500 nM in assay [2] (setting [5]); more than 5000 nM in assay [3] (setting [6]); less than 500 nM in assay [4] (HL-60, Cell-MTS proliferation).
In the case of `CCS(=O)(=O)c1ccc(OC2CCC(F)(F)CC2)c(-c2cn(C)c(=O)c3cncn23)c1` [Example 373, 5-[2-(4,4-difluorocyclohexyl)oxy-5-ethylsulfonylphenyl]-7-methylimidazo[1,5-a]pyrazin-8-one], the IC50 in assay [1] (setting [10]) is 500 to 5000 nM; in assay [2] (setting [5]) it was less than 500 nM; in assay [3] (setting [11]), more than 5000 nM; in assay [4] (setting [12]), less than 500 nM.
For the compound `CCS(=O)(=O)c1ccc(Oc2ccc(F)cc2F)c(-c2cn(C)c(=O)c3cncn23)c1` [Example 376, 5-[2-(2,4-difluorophenoxy)-5-ethylsulfonylphenyl]-7-methylimidazo[1,5-a]pyrazin-8-one], the IC50 in assay [1] (setting [10]) is 500 to 5000 nM; in assay [2] (setting [5]), less than 500 nM; in assay [3] (setting [11]) it was more than 5000 nM; in assay [4] (setting [12]), less than 500 nM.
`CCS(=O)(=O)c1ccc(OCC2CC2)c(-c2cc(C)c(=O)n(C3CC3)c2)c1` [Example 251, 1-cyclopropyl-5-[2-(cyclopropylmethoxy)-5-ethylsulfonylphenyl]-3-methylpyridin-2-one]: the IC50 was 500 to 5000 nM in assay [1] (Raji, Cell-MTS proliferation); less than 500 nM in assay [2] (setting [5]); more than 5000 nM in assay [3] (setting [6]); less than 500 nM in assay [4] (HL-60, Cell-MTS proliferation).
